ChEMBL document CHEMBL4028802, “DILIrank: the largest reference drug list ranked by the risk for developing drug-induced liver injury in humans” (Drug Discov Today, 2016)

Experiments:
Homo sapiens [1] = species on record: Homo sapiens; assay: Liver toxicity in human assessed as induction of drug-induced liver injury by measuring severity class index
Homo sapiens [2] = species on record: Homo sapiens; assay: Liver toxicity in human assessed as induction of drug-induced liver injury by measuring verified drug-induced liver injury concern status
Throughout, for DILI severity class: key of the grades not given here.

Structure (SMILES): CCC(C)n1ncn(-c2ccc(N3CCN(c4ccc(OCC5COC(Cn6cncn6)(c6ccc(Cl)cc6Cl)O5)cc4)CC3)cc2)c1=O (configuration not stated) [ITRACONAZOLE]
- DILI_severity_class (Homo sapiens [1]): 8
- DILI_Concern (Homo sapiens [2]): Most-Dili-Concern

Structure (SMILES): C/C(=C\c1csc(C)n1)[C@@H]1C[C@@H]2O[C@]2(C)CCC[C@H](C)[C@H](O)[C@@H](C)C(=O)C(C)(C)[C@@H](O)CC(=O)N1 [IXABEPILONE]
- DILI_severity_class (Homo sapiens [1]): 7
- DILI_Concern (Homo sapiens [2]): Ambiguous-Dili-Concern

Structure (SMILES): CNC1(c2ccccc2Cl)CCCCC1=O (configuration not stated) [KETAMINE]
- DILI_severity_class (Homo sapiens [1]): 0
- DILI_Concern (Homo sapiens [2]): Less-Dili-Concern

Structure (SMILES): CC(=O)N1CCN(c2ccc(OCC3COC(Cn4ccnc4)(c4ccc(Cl)cc4Cl)O3)cc2)CC1 (configuration not stated) [KETOCONAZOLE]
- DILI_severity_class (Homo sapiens [1]): 8
- DILI_Concern (Homo sapiens [2]): Most-Dili-Concern

Structure (SMILES): CC(C(=O)O)c1cccc(C(=O)c2ccccc2)c1 (configuration not stated) [KETOPROFEN]
- DILI_severity_class (Homo sapiens [1]): 3
- DILI_Concern (Homo sapiens [2]): Less-Dili-Concern

Structure (SMILES): O=C(c1ccccc1)c1ccc2n1CCC2C(=O)O (configuration not stated) [KETOROLAC]
- DILI_severity_class (Homo sapiens [1]): 3
- DILI_Concern (Homo sapiens [2]): Less-Dili-Concern

Structure (SMILES): CC(CCc1ccccc1)NCC(O)c1ccc(O)c(C(N)=O)c1 (configuration not stated) [LABETALOL]
- DILI_severity_class (Homo sapiens [1]): 8
- DILI_Concern (Homo sapiens [2]): Most-Dili-Concern

Structure (SMILES): COC[C@@H](NC(C)=O)C(=O)NCc1ccccc1 [LACOSAMIDE]
- DILI_severity_class (Homo sapiens [1]): 3
- DILI_Concern (Homo sapiens [2]): Ambiguous-Dili-Concern

Structure (SMILES): OC[C@H]1O[C@@H](O[C@@H]2[C@@H](CO)O[C@](O)(CO)[C@H]2O)[C@H](O)[C@@H](O)[C@H]1O [LACTULOSE]
- DILI_severity_class (Homo sapiens [1]): 0
- DILI_Concern (Homo sapiens [2]): No-Dili-Concern

Structure (SMILES): Nc1ccn([C@@H]2CS[C@H](CO)O2)c(=O)n1 [LAMIVUDINE]
- DILI_severity_class (Homo sapiens [1]): 3
- DILI_Concern (Homo sapiens [2]): Less-Dili-Concern

Structure (SMILES): Nc1nnc(-c2cccc(Cl)c2Cl)c(N)n1 [LAMOTRIGINE]
- DILI_severity_class (Homo sapiens [1]): 7
- DILI_Concern (Homo sapiens [2]): Most-Dili-Concern

Structure (SMILES): CC(=O)O.CC(C)[C@@H]1NC(=O)[C@H](CCCCN)NC(=O)[C@@H](Cc2c[nH]c3ccccc23)NC(=O)[C@H](Cc2ccc(O)cc2)NC(=O)[C@@H](NC(=O)[C@H](N)Cc2ccc3ccccc3c2)CSSC[C@@H](C(=O)N[C@H](C(N)=O)[C@@H](C)O)NC1=O [LANREOTIDE ACETATE]
- DILI_severity_class (Homo sapiens [1]): 2
- DILI_Concern (Homo sapiens [2]): Ambiguous-Dili-Concern

Structure (SMILES): Cc1c(OCC(F)(F)F)ccnc1C[S+]([O-])c1nc2ccccc2[nH]1 (configuration not stated) [LANSOPRAZOLE]
- DILI_severity_class (Homo sapiens [1]): 3
- DILI_Concern (Homo sapiens [2]): Less-Dili-Concern

Structure (SMILES): CS(=O)(=O)CCNCc1ccc(-c2ccc3ncnc(Nc4ccc(OCc5cccc(F)c5)c(Cl)c4)c3c2)o1 [LAPATINIB]
- DILI_severity_class (Homo sapiens [1]): 8
- DILI_Concern (Homo sapiens [2]): Most-Dili-Concern

Structure (SMILES): Cc1oncc1C(=O)Nc1ccc(C(F)(F)F)cc1 [LEFLUNOMIDE]
- DILI_severity_class (Homo sapiens [1]): 8
- DILI_Concern (Homo sapiens [2]): Most-Dili-Concern

Structure (SMILES): Nc1cccc2c1CN(C1CCC(=O)NC1=O)C2=O (configuration not stated) [LENALIDOMIDE]
- DILI_severity_class (Homo sapiens [1]): 3
- DILI_Concern (Homo sapiens [2]): Less-Dili-Concern

Structure (SMILES): N#Cc1ccc(C(c2ccc(C#N)cc2)n2cncn2)cc1 [LETROZOLE]
- DILI_severity_class (Homo sapiens [1]): 2
- DILI_Concern (Homo sapiens [2]): Less-Dili-Concern

Structure (SMILES): Nc1nc(=O)c2c([nH]1)NCC(CNc1ccc(C(=O)N[C@@H](CCC(=O)[O-])C(=O)[O-])cc1)N2C=O.[Ca+2] (some centres not stated) [LEUCOVORIN CALCIUM]
- DILI_severity_class (Homo sapiens [1]): 0
- DILI_Concern (Homo sapiens [2]): No-Dili-Concern

Structure (SMILES): Nc1nc2c(c(=O)[nH]1)N(C=O)C(CNc1ccc(C(=O)N[C@@H](CCC(=O)O)C(=O)O)cc1)CN2 (some centres not stated) [LEUCOVORIN]
- DILI_severity_class (Homo sapiens [1]): 0
- DILI_Concern (Homo sapiens [2]): No-Dili-Concern

Structure (SMILES): C[N+](C)(C)C[C@H](O)CC(=O)[O-] [LEVOCARNITINE]
- DILI_severity_class (Homo sapiens [1]): 0
- DILI_Concern (Homo sapiens [2]): No-Dili-Concern

Structure (SMILES): Cl.Cl.O=C(O)COCCN1CCN([C@H](c2ccccc2)c2ccc(Cl)cc2)CC1 [LEVOCETIRIZINE DIHYDROCHLORIDE]
- DILI_severity_class (Homo sapiens [1]): 4
- DILI_Concern (Homo sapiens [2]): Less-Dili-Concern

Structure (SMILES): C[C@H]1COc2c(N3CCN(C)CC3)c(F)cc3c(=O)c(C(=O)O)cn1c23.C[C@H]1COc2c(N3CCN(C)CC3)c(F)cc3c(=O)c(C(=O)O)cn1c23.O [LEVOFLOXACIN]
- DILI_severity_class (Homo sapiens [1]): 8
- DILI_Concern (Homo sapiens [2]): Most-Dili-Concern

Structure (SMILES): CN1c2c(nc(N)[nH]c2=O)NC[C@@H]1CNc1ccc(C(=O)N[C@@H](CCC(=O)[O-])C(=O)[O-])cc1.[Ca+2] [LEVOMEFOLATE CALCIUM]
- DILI_severity_class (Homo sapiens [1]): 0
- DILI_Concern (Homo sapiens [2]): No-Dili-Concern

Structure (SMILES): C#C[C@]1(O)CC[C@H]2[C@@H]3CCC4=CC(=O)CC[C@@H]4[C@H]3CC[C@@]21CC [LEVONORGESTREL]
- DILI_severity_class (Homo sapiens [1]): 0
- DILI_Concern (Homo sapiens [2]): No-Dili-Concern

Structure (SMILES): CN1CC[C@]23CCCC[C@H]2[C@H]1Cc1ccc(O)cc13 [LEVORPHANOL]
- DILI_severity_class (Homo sapiens [1]): 0
- DILI_Concern (Homo sapiens [2]): No-Dili-Concern

Structure (SMILES): N[C@@H](Cc1cc(I)c(Oc2cc(I)c(O)c(I)c2)c(I)c1)C(=O)O [LEVOTHYROXINE]
- DILI_severity_class (Homo sapiens [1]): 3
- DILI_Concern (Homo sapiens [2]): Less-Dili-Concern

Structure (SMILES): CCN(CC)CC(=O)Nc1c(C)cccc1C [LIDOCAINE]
- DILI_severity_class (Homo sapiens [1]): 0
- DILI_Concern (Homo sapiens [2]): No-Dili-Concern

Structure (SMILES): CCC[C@@H]1C[C@@H](C(=O)N[C@@H]([C@H]2O[C@H](SC)[C@H](O)[C@@H](O)[C@H]2O)[C@@H](C)O)N(C)C1 [LINCOMYCIN]
- DILI_severity_class (Homo sapiens [1]): 3
- DILI_Concern (Homo sapiens [2]): Ambiguous-Dili-Concern

Structure (SMILES): CC(=O)NC[C@H]1CN(c2ccc(N3CCOCC3)c(F)c2)C(=O)O1 [LINEZOLID]
- DILI_severity_class (Homo sapiens [1]): 3
- DILI_Concern (Homo sapiens [2]): Less-Dili-Concern

Structure (SMILES): N[C@@H](Cc1cc(I)c(Oc2ccc(O)c(I)c2)c(I)c1)C(=O)O [LIOTHYRONINE]
- DILI_severity_class (Homo sapiens [1]): 0
- DILI_Concern (Homo sapiens [2]): No-Dili-Concern

Structure (SMILES): C[C@@H](Cc1ccccc1)NC(=O)[C@@H](N)CCCCN [LISDEXAMFETAMINE]
- DILI_severity_class (Homo sapiens [1]): 3
- DILI_Concern (Homo sapiens [2]): Ambiguous-Dili-Concern

Structure (SMILES): NCCCC[C@H](N[C@@H](CCc1ccccc1)C(=O)O)C(=O)N1CCC[C@H]1C(=O)O [LISINOPRIL ANHYDROUS]
- DILI_severity_class (Homo sapiens [1]): 3
- DILI_Concern (Homo sapiens [2]): Less-Dili-Concern

Structure (SMILES): O=NN(CCCl)C(=O)NC1CCCCC1 [LOMUSTINE]
- DILI_severity_class (Homo sapiens [1]): 3
- DILI_Concern (Homo sapiens [2]): Less-Dili-Concern

Structure (SMILES): CN(C)C(=O)C(CCN1CCC(O)(c2ccc(Cl)cc2)CC1)(c1ccccc1)c1ccccc1 [LOPERAMIDE]
- DILI_severity_class (Homo sapiens [1]): 0
- DILI_Concern (Homo sapiens [2]): No-Dili-Concern

Structure (SMILES): N[C@@H](C(=O)N[C@@H]1C(=O)N2C(C(=O)O)=C(Cl)CC[C@H]12)c1ccccc1 [LORACARBEF ANHYDROUS]
- DILI_severity_class (Homo sapiens [1]): 3
- DILI_Concern (Homo sapiens [2]): Less-Dili-Concern

Structure (SMILES): O=C1Nc2ccc(Cl)cc2C(c2ccccc2Cl)=NC1O (configuration not stated) [LORAZEPAM]
- DILI_severity_class (Homo sapiens [1]): 3
- DILI_Concern (Homo sapiens [2]): Ambiguous-Dili-Concern

Structure (SMILES): CCCCc1nc(Cl)c(CO)n1Cc1ccc(-c2ccccc2-c2nn[nH]n2)cc1 [LOSARTAN]
- DILI_severity_class (Homo sapiens [1]): 4
- DILI_Concern (Homo sapiens [2]): Less-Dili-Concern

Structure (SMILES): CN1CCN(C2=Nc3ccccc3Oc3ccc(Cl)cc32)CC1 [LOXAPINE]
- DILI_severity_class (Homo sapiens [1]): 5
- DILI_Concern (Homo sapiens [2]): Ambiguous-Dili-Concern

Structure (SMILES): CCCCC(F)(F)[C@@]1(O)CC[C@H]2[C@@H](CC(=O)[C@@H]2CCCCCCC(=O)O)O1 [LUBIPROSTONE]
- DILI_severity_class (Homo sapiens [1]): 0
- DILI_Concern (Homo sapiens [2]): No-Dili-Concern

Structure (SMILES): Cc1ccc(Nc2c(F)cccc2Cl)c(CC(=O)O)c1 [LUMIRACOXIB]
- DILI_severity_class (Homo sapiens [1]): 8
- DILI_Concern (Homo sapiens [2]): Most-Dili-Concern

Structure (SMILES): OC[C@@H](O)[C@@H](O)[C@H](O)[C@H](O)CO [MANNITOL]
- DILI_severity_class (Homo sapiens [1]): 0
- DILI_Concern (Homo sapiens [2]): No-Dili-Concern
